Here are results for twelve molecules from patent US8618301B2, “5-phenylpyrazolopyridine derivatives, preparation and therapeutic use thereof” (Sanofi, priority 2009, dated 2013).

The target in data set [1] is T1, mouse Nurr1 receptor (Mus musculus, UniProt Q06219).
T1 construct: a cell line (N2A) endogenously expressing the mouse Nurr1 receptor; host or cells: Neuro-2A (N2A) mouse neuroblastoma cells stably transfected with 8NBRE-luciferase
Kind of data set: In vitro activity on N2A cells (8NBRE-luciferase reporter). The class given is cell-based. The note with it: N2A-8NBRE cells, 24 hours incubation. The procedure: The compounds according to the invention have formed the subject of pharmacological assays which make it possible to determine their modulatory effect on NOT. Evaluation of the In Vitro Activity on N2A Cells
The activity of the compounds according to the invention was evaluated on a cell line (N2A) endogenously expressing the mouse Nurr1 receptor and stably transfected with the NOT binding response element (NBRE) coupled to the luciferase reporter gene. The assays were carried out according to the procedure described below.
The Neuro-2A cell line comes from a standard commercial source (ATCC). The Neuro-2A clone was obtained, from a spontaneous tumour originating from an A albino mouse strain, by R. J Klebe et al. This Neuro-2A line is subsequently stably transfected with 8NBRE-luciferase. The N2A-8NBRE cells are cultured until confluence in 75 cm^2 culture flasks containing DMEM supplemented with 10% of foetal calf serum, 4.5 g/l of glucose and 0.4 mg/ml of geneticin. After a week of culture, the cells are recovered with 0.25% trypsin for 30 seconds and then resuspended in DMEM without phenol red, containing 4.5 g/l of glucose and 10% of Hyclone delipidized serum, and deposited into transparent-bottom 96-well white plates. The cells are deposited at a rate of 60 000 per well in 75 μl for 24 hours before the addition of the products. The products are applied in 25 μl and incubated for a further 24 hours. On the day of the measurement, an equivalent volume (100 μl) of Steadylite is added to each well and then left for a period of 30 minutes in order to obtain complete cell lysis and maximum signal production. The plates are subsequently measured in a luminescence counter for microplates after having been sealed with an adhesive film. The products are prepared in the form of a stock solution at 10^−2M and then diluted in 100% of DMSO. Each product concentration is prediluted in culture medium before incubation with the cells, thus containing 0.625% final concentration of DMSO.
(A reporter such as luciferase makes a cellular process visible.)

T1 sequence (Q06219 whole entry): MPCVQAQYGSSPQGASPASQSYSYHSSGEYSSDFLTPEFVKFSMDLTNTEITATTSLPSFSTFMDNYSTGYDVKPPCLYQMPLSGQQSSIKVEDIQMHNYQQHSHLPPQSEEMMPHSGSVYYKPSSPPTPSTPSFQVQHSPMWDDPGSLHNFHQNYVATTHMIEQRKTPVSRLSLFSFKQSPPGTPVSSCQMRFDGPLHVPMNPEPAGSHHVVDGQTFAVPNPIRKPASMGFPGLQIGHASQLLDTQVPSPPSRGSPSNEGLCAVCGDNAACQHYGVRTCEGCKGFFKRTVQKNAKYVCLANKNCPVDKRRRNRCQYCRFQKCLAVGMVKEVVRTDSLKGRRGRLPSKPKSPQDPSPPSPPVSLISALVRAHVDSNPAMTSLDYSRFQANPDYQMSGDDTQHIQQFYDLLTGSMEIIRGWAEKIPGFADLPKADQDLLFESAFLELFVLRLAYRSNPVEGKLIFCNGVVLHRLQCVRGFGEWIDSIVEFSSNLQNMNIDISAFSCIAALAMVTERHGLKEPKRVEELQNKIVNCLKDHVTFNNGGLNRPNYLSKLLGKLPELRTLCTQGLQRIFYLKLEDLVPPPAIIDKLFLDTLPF

A word on the melting point: it is the temperature, or range, at which the solid turns liquid. Turning to `OCc1c(F)ccc(-c2ccn3nc(-c4ccc(Cl)cc4)cc3c2)c1F` [Compound 5, {3-[2-(4-chlorophenyl)pyrazolo[1,5-a]pyridin-5-yl]-2,6-difluorophenyl}-methanol], the melting point lay in the range of 190 to 192 °C. The molecule `CC(O)c1cccc(-c2ccn3nc(-c4ccc(F)cc4)cc3c2)c1` (stereo not drawn) [Compound 8, 1-{3-[2-(4-fluorophenyl)pyrazolo[1,5-a]pyridin-5-yl]phenyl}ethanol] gave a melting point of 132 to 134 °C. Take `CC(C)(O)c1cccc(-c2ccn3nc(-c4ccc(Cl)cc4)cc3c2)c1` [Compound 2, 2-{3-[2-(4-chlorophenyl)pyrazolo[1,5-a]pyridin-5-yl]phenyl}propan-2-ol]: the melting point lay within 159 to 161 °C. The same measure, in the same setting: to `COCc1cccc(-c2ccn3nc(-c4ccc(Cl)cc4)cc3c2)c1` [Compound 9, 2-(4-chlorophenyl)-5-(3-methoxymethylphenyl)pyrazolo[1,5-a]pyridine] belongs 130 to 132 °C; to `CC(O)c1cccc(-c2ccn3nc(-c4ccc(Cl)cc4)cc3c2)c1` (stereo not drawn) [Compound 3, 1-{3-[2-(4-chlorophenyl)pyrazolo[1,5-a]pyridin-5-yl]phenyl}ethanol], 93 to 95 °C. `OCc1ccc(-c2ccn3nc(-c4ccc(Cl)cc4)cc3c2)cc1` [Compound 10, {4-[2-(4-chlorophenyl)pyrazolo[1,5-a]pyridin-5-yl]phenyl}methanol]: the melting point lay in the range of 214 to 216 °C. The molecule `OCC1(c2cccc(-c3ccn4nc(-c5ccc(Cl)cc5)cc4c3)c2)CC1` [Compound 4, 1-{3-[2-(4-chlorophenyl)pyrazolo[1,5-a]pyridin-5-yl]phenyl}cyclopropylmethanol] displayed a melting point of 141 to 143 °C. For orientation: EC50 means the concentration at which the effect is half-maximal. Read a low EC50 as an effect from little substance. Take `OC1CCc2ccc(-c3ccn4nc(-c5ccc(Cl)cc5)cc4c3)cc21` (stereo not drawn) [Compound 12, 6-[2-(4-chlorophenyl)pyrazolo[1,5-a]pyridin-5-yl]indan-1-ol]: the melting point lay within 181 to 183 °C. Further, the response in data set [1] was half-maximal at 164 nM (EC50).

`OCc1cccc(-c2ccn3nc(-c4ccc(F)cc4)cc3c2)c1` [Compound 6, {3-[2-(4-fluorophenyl)pyrazolo[1,5-a]pyridin-5-yl]phenyl}methanol] had a melting point of 141 to 143 °C. In the case of `CC(C)(O)c1cccc(-c2ccn3nc(-c4ccc(F)cc4)cc3c2)c1` [Compound 7, 2-{3-[2-(4-fluorophenyl)pyrazolo[1,5-a]pyridin-5-yl]phenyl}propan-2-ol], the melting point was in the range of 162 to 164 °C. The molecule `OCc1cccc(-c2ccn3nc(-c4ccc(Cl)cc4)cc3c2)c1` [Compound 1, {3-[2-(4-chlorophenyl)pyrazolo[1,5-a]pyridin-5-yl]phenyl}methanol] had a melting point of 161 to 164 °C. For the same molecule, in data set [1], the response was half-maximal at 0.2 nM (EC50).

On to `OCc1ccccc1-c1ccn2nc(-c3ccc(Cl)cc3)cc2c1` [Compound 11, {2-[2-(4-chlorophenyl)pyrazolo[1,5-a]pyridin-5-yl]phenyl}methanol], for which the melting point was 144 to 146 °C. Moreover, it took 1.7 nM to reach a half-maximal effect in data set [1] (EC50).
